In patent publication US10683299B2, “Pyrazolopyrazine and triazolopyrazine compounds for the treatment of infectious diseases” (Hoffmann-La Roche Inc., priority 2017, dated 2020):
pEC50: −log10 of the molar value. Like-named read-outs stand apart in the source and are kept apart here.

Test system: HBV replication in HepG2.2.15 cells
Assay: HBV inhibition assay in HepG2.2.15 cells (extracellular HBV DNA by qPCR)
Format: cell-based, Hepatitis B virus
Settings: five days after compound treatment, extracellular HBV DNA in culture supernatant by qPCR, read-out: EC50 (effective compound concentration at which HBV replication was inhibited by 50%)
Source text: HepG2.2.15 is a stably-transfected cell line containing the HBV genome. It is derived from the hepatoblastoma cell line Hep G2 (American Type Culture Collection, ATCC® HB-8065™) by the published procedures described in reference: M A Selles et al. Proc. Natl. Acad. Sci. USA 1987, 84, 1005-1009. The cell line was maintained in Dulbecco's modified Eagle's medium and nutrient mixture F-12 (DMEM/F-12, Gibco, Cat. #: 11320-033) supplemented with 10% fetal bovine serum (Gibco, Cat. #:10099-141), 100 U/mL penicillin, 100 μg/mL streptomycin (Gibco, Cat. #:15140-122), and 0.3 mg/mL of G418 Sulfate (Gibco, Cat. #: 10131-027).
HepG2.2.15 cells were seeded into 96-well plates at a density of 3×10^4 cells per well in culture media of 100 μL DMEM/F-12 supplemented with 2.5% fetal bovine serum, 100 U/mL penicillin, 100 μg/mL streptomycin and cultured overnight at 37° C. The test compounds were serially half-log diluted in DMSO, then diluted 100 times in culture media. 100 μL culture media containing diluted compounds were added into the plates to reach 0.5% final concentration of DMSO in every well. Five days after compound treatment, culture supernatant was collected for further analysis.
For quantitative PCR detection of extracellular HBV DNA, culture supernatant was processed by 500 μg/mL Proteinase K (Sigma, Cat. #:P2308) digestion at 50° C. for 1 hour. After heat inactivation of the enzyme at 95° C. for 15 minutes, the samples were subjected to HBV DNA quantification by qPCR. The effective compound concentration at which HBV replication was inhibited by 50% (EC50) was determined.

[1] = Hepatitis B virus, HepG2.2.15, 120 h

Row | SMILES | pEC50 [1] | pEC50
1 | C[C@H]1Cn2ncc(N3CCS3(=O)=O)c2CN1C(=O)Nc1cc(F)c(F)c(F)c1 [Example 25, (6S)-3-(1,1-dioxothiazetidin-2-yl)-6-methyl-N-(3,4,5-trifluorophenyl)-6,7-dihydro-4H-pyrazolo[1,5-a]pyrazine-5-carboxamide] | 6.85 | –
2 | C[C@H]1Cn2ncc(N3CCN(C(=O)OCc4ccccc4)CS3(=O)=O)c2CN1C(=O)Nc1cc(F)c(F)c(F)c1 [Example 13, Benzyl 2-[(6S)-6-methyl-5-[(3,4,5-trifluorophenyl)carbamoyl]-6,7-dihydro-4H-pyrazolo[1,5-a]pyrazin-3-yl]-1,1-dioxo-1,2,5-thiadiazinane-5-carboxylate] | 7.28 | –
3 | C[C@H]1Cn2ncc(N3CCCS3(=O)=O)c2CN1C(=O)Nc1ccnc(C(F)F)c1 [Example 6, (6S)—N-[2-(difluoromethyl)-4-pyridyl]-3-(1,1-dioxo-1,2-thiazolidin-2-yl)-6-methyl-6,7-dihydro-4H-pyrazolo[1,5-a]pyrazine-5-carboxamide] | 7.08 | –
4 | C[C@H]1Cn2ncc(N3CC(O)CNS3(=O)=O)c2CN1C(=O)Nc1cc(F)c(F)c(F)c1 (stereo partly drawn) [Example 26, (6S)-3-(4-hydroxy-1,1-dioxo-1,2,6-thiadiazinan-2-yl)-6-methyl-N-(3,4,5-trifluorophenyl)-6,7-dihydro-4H-pyrazolo[1,5-a]pyrazine-5-carboxamide] | 6.89 | –
5 | CC1Cn2nnc(N3CCCS3(=O)=O)c2CN1C(=O)Nc1cc(F)c(F)c(F)c1 (single isomer, unassigned) [Example 33-2, 3-(1,1-dioxo-1,2-thiazolidin-2-yl)-6-methyl-N-(3,4,5-trifluorophenyl)-6,7-dihydro-4H-triazolo[1,5-a]pyrazine-5-carboxamide] | – | 6.39
6 | C[C@H]1Cn2ncc(N3CCOCS3(=O)=O)c2CN1C(=O)Nc1cc(F)c(F)c(F)c1 [Example 24, (6S)-3-(3,3-dioxo-1,3,4-oxathiazinan-4-yl)-6-methyl-N-(3,4,5-trifluorophenyl)-6,7-dihydro-4H-pyrazolo[1,5-a]pyrazine-5-carboxamide] | 7.96 | –
7 | CC(=O)N1CCN(c2cnn3c2CN(C(=O)Nc2cc(F)c(F)c(F)c2)[C@@H](C)C3)S(=O)(=O)C1 [Example 15, (6S)-3-(5-acetyl-1,1-dioxo-1,2,5-thiadiazinan-2-yl)-6-methyl-N-(3,4,5-trifluorophenyl)-6,7-dihydro-4H-pyrazolo[1,5-a]pyrazine-5-carboxamide] | 7.59 | –
8 | C[C@H]1Cn2ncc(N3[C@@H](C)CNS3(=O)=O)c2CN1C(=O)Nc1cc(F)c(F)c(F)c1 [Example 22, (6S)-6-methyl-3-[(3S)-3-methyl-1,1-dioxo-1,2,5-thiadiazolidin-2-yl]-N-(3,4,5-trifluorophenyl)-6,7-dihydro-4H-pyrazolo[1,5-a]pyrazine-5-carboxamide] | 7.57 | –
9 | CC1C(O)CS(=O)(=O)N1c1cnn2c1CN(C(=O)Nc1cc(F)c(F)c(F)c1)[C@@H](C)C2 (stereo partly drawn) [Example 28-2, (6S)-3-(4-hydroxy-3-methyl-1,1-dioxo-1,2-thiazolidin-2-yl)-6-methyl-N-(3,4,5-trifluorophenyl)-6,7-dihydro-4H-pyrazolo[1,5-a]pyrazine-5-carboxamide] | – | 7.74
10 | C[C@H]1Cn2ncc(N3CCCS3(=O)=O)c2CN1C(=O)Nc1ccnc(Cl)c1 [Example 2, (6S)—N-(2-chloro-4-pyridyl)-3-(1,1-dioxo-1,2-thiazolidin-2-yl)-6-methyl-6,7-dihydro-4H-pyrazolo[1,5-a]pyrazine-5-carboxamide] | 7.10 | –
11 | C[C@H]1Cn2ncc(N3CCNS3(=O)=O)c2CN1C(=O)Nc1cc(F)c(F)c(F)c1 [Example 19, (6S)-3-(1,1-dioxo-1,2,5-thiadiazolidin-2-yl)-6-methyl-N-(3,4,5-trifluorophenyl)-6,7-dihydro-4H-pyrazolo[1,5-a]pyrazine-5-carboxamide] | 7.85 | –
12 | C[C@H]1Cn2ncc(N3[C@@H](C)CS3(=O)=O)c2CN1C(=O)Nc1cc(F)c(F)c(F)c1 [Example 21, (6S)-6-methyl-3-[(3S)-3-methyl-1,1-dioxo-thiazetidin-2-yl]-N-(3,4,5-trifluorophenyl)-6,7-dihydro-4H-pyrazolo[1,5-a]pyrazine-5-carboxamide] | 7.34 | –
13 | C[C@H]1Cn2ncc(N3CC4CCC(=O)N4CS3(=O)=O)c2CN1C(=O)Nc1cc(F)c(F)c(F)c1 (stereo partly drawn) [Example 14, (6S)-6-methyl-N-(3,4,5-trifluorophenyl)-3-(3,3,6-trioxo-4,7,8,8a-tetrahydro-1H-pyrrolo[2,1-d][1,2,5]thiadiazin-2-yl)-6,7-dihydro-4H-pyrazolo[1,5-a]pyrazine-5-carboxamide] | 7.55 | –
14 | C[C@H]1Cn2ncc(N3CCCS3(=O)=O)c2CN1C(=O)Nc1ccccc1F [Example 8, (6S)-3-(1,1-dioxo-1,2-thiazolidin-2-yl)-N-(2-fluorophenyl)-6-methyl-6,7-dihydro-4H-pyrazolo[1,5-a]pyrazine-5-carboxamide] | 6.52 | –
15 | C[C@H]1Cn2ncc(N3CC(c4ccccc4C(=O)O)CS3(=O)=O)c2CN1C(=O)Nc1cc(F)c(F)c(F)c1 (stereo partly drawn) [Example 36, 2-[2-[(6S)-6-methyl-5-[(3,4,5-trifluorophenyl)carbamoyl]-6,7-dihydro-4H-pyrazolo[1,5-a]pyrazin-3-yl]-1,1-dioxo-1,2-thiazolidin-4-yl]benzoic acid] | 7.77 | –
16 | COC1CS(=O)(=O)N(c2cnn3c2CN(C(=O)Nc2cc(F)c(F)c(F)c2)[C@@H](C)C3)C1C (stereo partly drawn) [Example 31, (6S)-3-(4-methoxy-3-methyl-1,1-dioxo-1,2-thiazolidin-2-yl)-6-methyl-N-(3,4,5-trifluorophenyl)-6,7-dihydro-4H-pyrazolo[1,5-a]pyrazine-5-carboxamide] | 8.01 | –
17 | C[C@H]1Cn2ncc(N3CCCS3(=O)=O)c2CN1C(=O)Nc1ccc(F)c(C(F)(F)F)c1 [Example 7, (6S)-3-(1,1-dioxo-1,2-thiazolidin-2-yl)-N-[4-fluoro-3-(trifluoromethyl)phenyl]-6-methyl-6,7-dihydro-4H-pyrazolo[1,5-a]pyrazine-5-carboxamide] | 8.01 | –
18 | Cc1cc(NC(=O)N2Cc3c(N4CCCS4(=O)=O)cnn3C[C@@H]2C)ccc1F [Example 4, (6S)-3-(1,1-dioxo-1,2-thiazolidin-2-yl)-N-(4-fluoro-3-methyl-phenyl)-6-methyl-6,7-dihydro-4H-pyrazolo[1,5-a]pyrazine-5-carboxamide] | 8.22 | –
19 | C[C@H]1Cn2ncc(N3CC4COCCN4S3(=O)=O)c2CN1C(=O)Nc1cc(F)c(F)c(F)c1 (stereo partly drawn) [Example 12, (6S)-3-(1,1-dioxo-3a,4,6,7-tetrahydro-3H-[1,2,5]thiadiazolo[3,2-c][1,4]oxazin-2-yl)-6-methyl-N-(3,4,5-trifluorophenyl)-6,7-dihydro-4H-pyrazolo[1,5-a]pyrazine-5-carboxamide] | 7.40 | –
20 | C[C@H]1Cn2ncc(N3CCCS3(=O)=O)c2CN1C(=O)Nc1ccc(F)c(C#N)c1 [Example 5, (6S)—N-(3-cyano-4-fluoro-phenyl)-3-(1,1-dioxo-1,2-thiazolidin-2-yl)-6-methyl-6,7-dihydro-4H-pyrazolo[1,5-a]pyrazine-5-carboxamide] | 7.85 | –
21 | CC1NS(=O)(=O)N(c2cnn3c2CN(C(=O)Nc2cc(F)c(F)c(F)c2)[C@@H](C)C3)[C@H]1C (stereo partly drawn) [Example 23, (6S)-3-[(3S)-3,4-dimethyl-1,1-dioxo-1,2,5-thiadiazolidin-2-yl]-6-methyl-N-(3,4,5-trifluorophenyl)-6,7-dihydro-4H-pyrazolo[1,5-a]pyrazine-5-carboxamide] | 7.28 | –
